# Laboratory results taken from patent US20220324835A1 (Nurix Therapeutics, Inc., priority 2018, published 2022).
# Like-named read-outs stand apart in the source and are kept apart here.
# How the values were obtained:
# Cbl-b = Cbl-b (Homo sapiens, UniProt Q13191); assay: Cbl-b activity assay (Cbl-b inhibition assay), TR-FRET of Cbl-b interaction with UbcH5B-Ub; format: biochemical; conditions: assay buffer with 100 mM NaCl, 60 nM Src kinase; read-out: Cbl-b activity IC50
# How it was run: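 Compound-treated Cbl-b was incubated 1.5 h with Src kinase (60 nM final; 30 nM for asterisked values, which also used 50 mM instead of 100 mM NaCl), 1 mM ATP and 5 mM MgCl2. Binding to fluorescent Ub-loaded UbcH5B (C85K mutant) was then read by TR-FRET after 1 h more.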
# T-cell = assay: CD25 cell surface staining on T-cells co-stimulated with anti-CD3 and anti-CD28 antibody (Biological Example 2); format: cell-based, human; conditions: Homo sapiens, T-cell; for fold induction at 4 µM: 4 μM compound
# How it was run: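 Values are fold-change over baseline: readings (IL-2 release, CD25 staining) from inhibitor-treated T-cells divided against untreated cells […]. No detailed procedure stated.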
# [1] = read-out: CD25 staining, Anti-CD3/Anti-CD28 stimulation, fold change over baseline
# [2] = 0.3 μM compound, primary human total T-cells, baseline = anti-CD3/anti-CD28 stimulated cells without inhibitor, read-out: CD25 staining, Anti-CD3/Anti-CD28 stimulation, fold change over baseline
# [3] = 1 μM compound, primary human total T-cells, baseline = anti-CD3/anti-CD28 stimulated cells without inhibitor, read-out: CD25 staining, Anti-CD3/Anti-CD28 stimulation, fold change over baseline
# [4] = primary human total T-cells, baseline = anti-CD3/anti-CD28 stimulated cells without inhibitor, read-out: CD25 staining, Anti-CD3/Anti-CD28 stimulation, fold change over baseline
# Chain of Cbl-b (Q13191 36-427): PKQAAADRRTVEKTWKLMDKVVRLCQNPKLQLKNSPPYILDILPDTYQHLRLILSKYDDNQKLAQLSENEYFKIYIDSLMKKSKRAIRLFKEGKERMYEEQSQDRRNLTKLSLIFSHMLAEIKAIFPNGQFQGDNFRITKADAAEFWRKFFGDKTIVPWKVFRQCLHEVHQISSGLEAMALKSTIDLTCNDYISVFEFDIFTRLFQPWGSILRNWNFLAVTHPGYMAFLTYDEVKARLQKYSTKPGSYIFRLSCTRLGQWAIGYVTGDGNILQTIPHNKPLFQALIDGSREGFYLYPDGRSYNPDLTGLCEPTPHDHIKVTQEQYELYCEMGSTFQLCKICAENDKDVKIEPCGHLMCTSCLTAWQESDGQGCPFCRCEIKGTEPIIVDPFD
Compound,IC50 (Cbl-b) [nM],"fold induction at 0.3 µM (T-cell; 0.3 μM Cbl-b inhibitor, fold change over baseline (anti-CD3/anti-CD28 stimulated T-cells without inhibitor), read-out: CD25 staining Anti-CD3/Anti-CD28 stimulation)","fold induction at 1 µM (T-cell; 1 μM Cbl-b inhibitor, fold change over baseline (anti-CD3/anti-CD28 stimulated T-cells without inhibitor), read-out: CD25 staining Anti-CD3/Anti-CD28 stimulation)",fold induction at 0.3 µM (T-cell; [1]),fold induction at 1 µM (T-cell; [1]),fold induction at 0.3 µM (T-cell; [2]),fold induction at 1 µM (T-cell; [3]),fold induction at 4 µM (T-cell; [4])
"C[C@H](c1cc2c(c(C(F)(F)F)c1)CN(c1cccc(C3([C@H](F)c4nncn4C)COC3)c1)C2=O)N1CCC2(CC2)C1 (stereo in doubt) [Example 575, 6-((R)-1-(5-Azaspiro[2.4]heptan-5-yl)ethyl)-2-(3-(3-((S)-fluoro(4-methyl-4H-1,2,4-triazol-3-yl)methyl)oxetan-3-yl)phenyl)-4-(trifluoromethyl)isoindolin-1-one]",< 100,1.31 to 1.5,1.31 to 1.5,,,,,
"CN1CC2CCC(C1)N2c1cc2c(c(C(F)(F)F)c1)CN(c1cccc(C3(Cc4nncn4C)COC3)c1)C2=O [Compound 386, 2-(3-(3-((4-Methyl-4H-1,2,4-triazol-3-yl)methyl)oxetan-3-yl)phenyl)-6-(3-methyl-3,8-diazabicyclo[3.2.1]octan-8-yl)-4-(trifluoromethyl)isoindolin-1-one]",< 100,,,1.31 to 1.5,1.31 to 1.5,,,
"Cn1cnnc1CC1(c2cccc(N3Cc4c(cc(CN5CC[C@H](F)C5)cc4C(F)(F)F)C3=O)c2)COC1 [Compound 410, 6-{[(3S)-3-fluoropyrrolidin-1-yl]methyl}-2-(3-{3-[(4-methyl-4H-1,2,4-triazol-3-yl)methyl]oxetan-3-yl}phenyl)-4-(trifluoromethyl)-2,3-dihydro-1H-isoindol-1-one]",< 100,,,,,1.31 to 1.5,1.51 to 1.75,1.51 to 1.75
"Cn1cnnc1CC1(c2cccc(N3Cc4c(cc(CN5CC[C@@H](C#N)C5)cc4C(F)(F)F)C3=O)c2)COC1 [Compound 421, (R)-1-((2-(3-(3-((4-methyl-4H-1,2,4-triazol-3-yl)methyl)oxetan-3-yl)phenyl)-3-oxo-7-(trifluoromethyl)isoindolin-5-yl)methyl)pyrrolidine-3-carbonitrile]",< 100,,,,,1.01 to 1.3,1.01 to 1.3,1.31 to 1.5
"Cn1cnnc1CC1(c2cccc(N3Cc4c(cc(CN5C[C@H]6C[C@H]6C5)cc4C(F)(F)F)C3=O)c2)COC1 [Compound 429, 6-(((1R,5S)-3-azabicyclo[3.1.0]hexan-3-yl)methyl)-2-(3-(3-((4-methyl-4H-1,2,4-triazol-3-yl)methyl)oxetan-3-yl)phenyl)-4-(trifluoromethyl)isoindolin-1-one]",< 100,,,,,1.31 to 1.5,1.31 to 1.5,1.51 to 1.75
"Cn1cnnc1CC1(c2cccc(N3Cc4c(cc(CN5CCC[C@H](F)C5)cc4C(F)(F)F)C3=O)c2)COC1 [Compound 432, 6-{[(3S)-3-fluoropiperidin-1-yl]methyl}-2-(3-{3-[(4-methyl-4H-1,2,4-triazol-3-yl)methyl]oxetan-3-yl}phenyl)-4-(trifluoromethyl)-2,3-dihydro-1H-isoindol-1-one]",< 100,,,,,1.31 to 1.5,1.31 to 1.5,
"Cn1cnnc1CC1(c2cccc(N3Cc4c(cc(CN5CC6(CC6)C5)cc4C(F)(F)F)C3=O)c2)COC1 [Compound 487, 6-{5-azaspiro[2.3]hexan-5-ylmethyl}-2-(3-{3-[(4-methyl-1,2,4-triazol-3-yl)methyl]oxetan-3-yl}phenyl)-4-(trifluoromethyl)-3H-isoindol-1-one]",< 100,,,,,1.31 to 1.5,1.31 to 1.5,
"C[C@@H](c1cc2c(c(C(F)(F)F)c1)CN(c1cccc(C3(Cc4nncn4C)COC3)c1)C2=O)N1C[C@H]2C[C@H]2C1 [Compound 541a, 6-((1S)-1-(3-azabicyclo[3.1.0]hexan-3-yl)ethyl)-2-(3-(3-((4-methyl-4H-1,2,4-triazol-3-yl)methyl)oxetan-3-yl)phenyl)-4-(trifluoromethyl)isoindolin-1-one]",< 100,,,,,1.31 to 1.5,1.31 to 1.5,
